# Test results reported in patent US7763598B2, “1α-hydroxy-2-(3′-hydroxypropylidene)-19-nor-vitamin D compounds with a 1,1-dimethylpropyl side chain” (Wisconsin Alumni Research Foundation, priority 2006, dated 2010).
# What was measured:
# [1] = Intestinal calcium transport (everted gut sac) in vitamin D-deficient rats; type: in vivo, rat; conditions: for Intestinal calcium transport: everted gut sac, vitamin D-deficient rats, FIG. 5
# Procedure: (§1) Male, weanling Sprague-Dawley rats were placed on Diet 11 (0.47% Ca) diet +AEK for one week followed by Diet 11 (0.02% Ca) +AEK for 3 weeks. The rats were then switched to a diet containing 0.47% Ca for one week followed by two weeks on a diet containing 0.02% Ca. Dose administration began during the last week on 0.02% calcium diet. Four consecutive ip doses were given approximately 24 hours apart. Twenty-four hours after the last dose, blood was collected from the severed neck and the concentration of serum calcium determined as a measure of bone calcium mobilization. The first 10 cm of the intestine was also collected for intestinal calcium transport analysis using the everted gut sac method.
# [2] = Bone calcium mobilization (serum calcium) in vitamin D-deficient rats; type: in vivo, rat
# Procedure: as §1
# [3] = system: 24-hydroxylase (24Ohase) gene promoter; test: In vitro transcription assay (luciferase reporter in ROS 17/2.8 bone cells); type: cell-based; conditions: FIG. 3; for EC50: ROS 17/2.8 cells, 24Ohase promoter-luciferase, 16 h, read-out: EC50, transcriptional activity in bone cells
# Procedure: Transcription activity was measured in ROS 17/2.8 (bone) cells that were stably transfected with a 24-hydroxylase (24Ohase) gene promoter upstream of a luciferase reporter gene (Arbour et al., 1998). Cells were given a range of doses. Sixteen hours after dosing the cells were harvested and luciferase activities were measured using a luminometer.
# RLU=Relative Luciferase Units.
# [4] = system: Human promyelocytic leukemia (HL60) cells; test: HL-60 differentiation (nitro blue tetrazolium reduction); type: cell-based; conditions: FIG. 2; for EC50: HL60 cells, 4 days, NBT reduction
# Procedure: The study drugs were dissolved in ethanol and the concentrations determined using UV spectrophotometry. Serial dilutions were prepared so that a range of drug concentrations could be tested without changing the final concentration of ethanol (≦0.2%) present in the cell cultures.
# Human promyelocytic leukemia (HL60) cells were grown in RPMI-1640 medium containing 10% fetal bovine serum. The cells were incubated at 37° C. in the presence of 5% CO2.
# HL60 cells were plated at 1.2×10^5 cells/ml. Eighteen hours after plating, cells in duplicate were treated with drug. Four days later, the cells were harvested and a nitro blue tetrazolium reduction assay was performed (Collins et al., 1979; J. Exp. Med. 149:969-974). The percentage of differentiated cells was determined by counting a total of 200 cells and recording the number that contained intracellular black-blue formazan deposits. Verification of differentiation to monocytic cells was determined by measuring phagocytic activity (data not shown).
# [5] = target: T1, full-length recombinant rat vitamin D receptor (Rattus norvegicus, UniProt P13053); test: Vitamin D receptor binding (competition with [3H]-1,25(OH)2D3); conditions: full-length recombinant rat VDR; FIG. 1
# T1 construct: Full-length recombinant rat receptor was expressed in E. coli; histidine tag (C); made in house; host or cells: E. coli BL21 (DE3) Codon Plus RIL
# T1 sequence (P13053 1-423): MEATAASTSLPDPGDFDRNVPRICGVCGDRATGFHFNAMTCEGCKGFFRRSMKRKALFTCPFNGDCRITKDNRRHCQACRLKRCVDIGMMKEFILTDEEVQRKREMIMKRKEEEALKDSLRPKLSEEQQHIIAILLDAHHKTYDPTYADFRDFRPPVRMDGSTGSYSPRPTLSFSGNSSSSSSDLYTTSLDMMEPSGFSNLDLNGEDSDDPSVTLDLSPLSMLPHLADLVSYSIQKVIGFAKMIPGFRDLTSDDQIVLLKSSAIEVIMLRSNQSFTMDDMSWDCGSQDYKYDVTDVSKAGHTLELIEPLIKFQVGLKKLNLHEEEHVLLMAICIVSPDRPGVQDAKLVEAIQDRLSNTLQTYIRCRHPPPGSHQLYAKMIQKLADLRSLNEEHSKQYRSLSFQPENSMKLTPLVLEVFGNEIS
# Procedure: Full-length recombinant rat receptor was expressed in E. coli BL21 (DE3) Codon Plus RIL cells and purified to homogeneity using two different column chromatography systems. The first system was a nickel affinity resin that utilizes the C-terminal histidine tag on this protein. The protein that was eluted from this resin was further purified using ion exchange chromatography (S-Sepharose Fast Flow). Aliquots of the purified protein were quick frozen in liquid nitrogen and stored at −80° C. until use. For use in binding assays, the protein was diluted in TEDK50 (50 mM Tris, 1.5 mM EDTA, pH7.4, 5 mM DTT, 150 mM KCl) with 0.1% Chaps detergent. The receptor protein and ligand concentration were optimized such that no more than 20% of the added radiolabeled ligand was bound to the receptor.
# Radiolabeled and unlabeled ligands were added to 100 mcl of the diluted protein at a final ethanol concentration of ≦10%, mixed and incubated overnight on ice to reach binding equilibrium. The following day, 100 mcl of hydroxylapatite slurry (50%) was added to each tube and mixed at 10-minute intervals for 30 minutes. […] After the final wash, the pellets were transferred to scintillation vials containing 4 ml of Biosafe II scintillation cocktail, mixed and placed in a scintillation counter. Total binding was determined from the tubes containing only radiolabeled ligand.
Compound,Intestinal calcium transport ([1]; 260 pmol/day),"Serum calcium levels (bone calcium mobilization) ([2]; at the dosage tested, vitamin D-deficient rats on low calcium diet (0.02%), FIG. 4)",EC50 [3],EC50 [4],Intestinal calcium transport ([1]; 2340 pmol/day),"Stimulating intestinal calcium transport compared to 1,25(OH)2D3 (in words) ([1]; FIG. 5, overall)","Bone calcium mobilization (serum calcium) ([2]; 260 pmol/day ip for 4 consecutive days, vitamin D-deficient rats on low calcium diet (0.02%), FIG. 4)","Bone calcium mobilization (serum calcium) ([2]; 2340 pmol/day ip for 4 consecutive days, vitamin D-deficient rats on low calcium diet (0.02%), FIG. 4)","Bone calcium mobilization activity compared to 1,25(OH)2D3 (in words) ([2]; FIG. 4, overall)","Transcriptional activity in bone cells compared to 1α,25-dihydroxyvitamin D3 (in words) [3]","Binding to vitamin D receptor compared to 1,25-(OH)2D3 (in words) [5]",Ki [5],"HL-60 cell differentiation potency compared to 1,25(OH)2D3 (in words) [4]","EC50 ([4]; Homo sapiens, HL-60, 96 h)"
"C=C1/C(=C\C=C2/CCC[C@]3(C)[C@@H]([C@H](C)CCCC(C)(C)O)CC[C@@H]23)C[C@@H](O)C[C@@H]1O [1,25(OH)2D3, 1α,25-dihydroxyvitamin D3, reference compound]",promotes a significant increase,increased serum calcium levels,0.2 nM,20 nM,–,–,–,–,–,–,–,–,–,–
"CCC(C)(C)C1CCC2C(=CC=C3CC(O)C(=CCCO)C(O)C3)CCCC21C (stereo not drawn) [20DC, 1α-hydroxy-2-[3′-hydroxypropylidene]-20-methyl-19,24,25,26,27-pentanorvitamin D3]",does not promote intestinal calcium transport,–,2 nM,–,does not promote intestinal calcium transport,very little activity,did not result in mobilization of bone calcium,without any substantial effect,very little bone calcium mobilization activity,about the same transcriptional activity,bound equally well,0.08 nM,"about as potent as 1,25(OH)2D3",50 nM
